Results from paper PMC11277489, “Novel Piperazine Derivatives of Vindoline as Anticancer Agents” (International Journal of Molecular Sciences, 2024).

Key:
CCRF-CEM = test: NCI60 one-dose screen (10 μM), Leukemia; format: cell-based; conditions: Homo sapiens, read-out: Growth percent rate
HL-60(TB) = test: NCI60 one-dose screen (10 μM), Leukemia; format: cell-based; conditions: Homo sapiens, HL-60, read-out: Growth percent rate
K-562 = test: NCI60 one-dose screen (10 μM), Leukemia; format: cell-based; conditions: Homo sapiens, K562, read-out: Growth percent rate
MOLT-4 = test: NCI60 one-dose screen (10 μM), Leukemia; format: cell-based, human; conditions: Homo sapiens, MOLT-4, read-out: Growth percent rate
RPMI-8226 = test: NCI60 one-dose screen (10 μM), Leukemia; format: cell-based; conditions: Homo sapiens, RPMI-8226, read-out: Growth percent rate
A549/ATCC = test: NCI60 one-dose screen (10 μM), Non-small Cell Lung Cancer; format: cell-based; conditions: Homo sapiens, A549, read-out: Growth percent rate
HOP-62 = test: as above; format: cell-based; conditions: Homo sapiens, HOP-62, read-out: Growth percent rate
NCI-H322M = test: as above; format: cell-based; conditions: Homo sapiens, read-out: Growth percent rate
NCI-H460 = test: as above; format: cell-based; conditions: Homo sapiens, NCI-H460, read-out: Growth percent rate
NCI-H522 = test: as above; format: cell-based; conditions: Homo sapiens, NCI-H522, read-out: Growth percent rate
COLO 205 = test: NCI60 one-dose screen (10 μM), Colon Cancer; format: cell-based, human; conditions: Homo sapiens, COLO 205, read-out: Growth percent rate
HCT-116 = test: NCI60 one-dose screen (10 μM), Colon Cancer; format: cell-based; conditions: Homo sapiens, HCT-116, read-out: Growth percent rate
HCT-15 = test: NCI60 one-dose screen (10 μM), Colon Cancer; format: cell-based; conditions: Homo sapiens, HCT-15, read-out: Growth percent rate
HT29 = test: NCI60 one-dose screen (10 μM), Colon Cancer; format: cell-based; conditions: Homo sapiens, HT-29, read-out: Growth percent rate
KM12 = test: NCI60 one-dose screen (10 μM), Colon Cancer; format: cell-based, human; conditions: Homo sapiens, KM12, read-out: Growth percent rate
SW-620 = test: NCI60 one-dose screen (10 μM), Colon Cancer; format: cell-based; conditions: Homo sapiens, SW-620, read-out: Growth percent rate
SF-268 = test: NCI60 one-dose screen (10 μM), CNS Cancer; format: cell-based; conditions: Homo sapiens, SF-268, read-out: Growth percent rate
SF-295 = test: NCI60 one-dose screen (10 μM), CNS Cancer; format: cell-based; conditions: Homo sapiens, SF-295, read-out: Growth percent rate
SF-539 = test: NCI60 one-dose screen (10 μM), CNS Cancer; format: cell-based, human; conditions: Homo sapiens, SF-539, read-out: Growth percent rate
SNB-19 = test: NCI60 one-dose screen (10 μM), CNS Cancer; format: cell-based; conditions: Homo sapiens, SNB-19, read-out: Growth percent rate
SNB-75 = test: NCI60 one-dose screen (10 μM), CNS Cancer; format: cell-based, human; conditions: Homo sapiens, SNB-75, read-out: Growth percent rate
U251 = test: NCI60 one-dose screen (10 μM), CNS Cancer; format: cell-based; conditions: Homo sapiens, U-251, read-out: Growth percent rate
LOX IMVI = test: NCI60 one-dose screen (10 μM), Melanoma; format: cell-based, human; conditions: Homo sapiens, LOX IMVI, read-out: Growth percent rate
MALME-3M = test: NCI60 one-dose screen (10 μM), Melanoma; format: cell-based; conditions: Homo sapiens, Malme-3M, read-out: Growth percent rate
M14 = test: NCI60 one-dose screen (10 μM), Melanoma; format: cell-based; conditions: Homo sapiens, M14, read-out: Growth percent rate
SK-MEL-2 = test: NCI60 one-dose screen (10 μM), Melanoma; format: cell-based; conditions: Homo sapiens, SK-MEL-2, read-out: Growth percent rate
SK-MEL-28 = test: NCI60 one-dose screen (10 μM), Melanoma; format: cell-based; conditions: Homo sapiens, SK-MEL-28, read-out: Growth percent rate
SK-MEL-5 = test: NCI60 one-dose screen (10 μM), Melanoma; format: cell-based, human; conditions: Homo sapiens, SK-MEL-5, read-out: Growth percent rate
UACC-257 = test: NCI60 one-dose screen (10 μM), Melanoma; format: cell-based; conditions: Homo sapiens, UACC-257, read-out: Growth percent rate
IGROV1 = test: NCI60 one-dose screen (10 μM), Ovarian Cancer; format: cell-based; conditions: Homo sapiens, IGROV-1, read-out: Growth percent rate
OVCAR-3 = test: NCI60 one-dose screen (10 μM), Ovarian Cancer; format: cell-based; conditions: Homo sapiens, OVCAR-3, read-out: Growth percent rate
OVCAR-8 = test: NCI60 one-dose screen (10 μM), Ovarian Cancer; format: cell-based; conditions: Homo sapiens, OVCAR-8, read-out: Growth percent rate
786–0 = test: NCI60 one-dose screen (10 μM), Renal Cancer; format: cell-based; conditions: Homo sapiens, 786-0, read-out: Growth percent rate
A498 = test: NCI60 one-dose screen (10 μM), Renal Cancer; format: cell-based; conditions: Homo sapiens, A498, read-out: Growth percent rate
ACHN = test: NCI60 one-dose screen (10 μM), Renal Cancer; format: cell-based; conditions: Homo sapiens, read-out: Growth percent rate
RXF 393 = test: NCI60 one-dose screen (10 μM), Renal Cancer; format: cell-based, human; conditions: Homo sapiens, RXF 393, read-out: Growth percent rate
SN12C = test: NCI60 one-dose screen (10 μM), Renal Cancer; format: cell-based; conditions: Homo sapiens, read-out: Growth percent rate
TK-10 = test: NCI60 one-dose screen (10 μM), Renal Cancer; format: cell-based; conditions: Homo sapiens, TK-10, read-out: Growth percent rate
DU-145 = test: NCI60 one-dose screen (10 μM), Prostate Cancer; format: cell-based; conditions: Homo sapiens, DU-145, read-out: Growth percent rate
MCF7 = test: NCI60 one-dose screen (10 μM), Breast Cancer; format: cell-based; conditions: Homo sapiens, MCF7, read-out: Growth percent rate
HS 578T = test: NCI60 one-dose screen (10 μM), Breast Cancer; format: cell-based; conditions: Homo sapiens, Hs-578T, read-out: Growth percent rate
[1] = system: 60 human tumor cell lines (NCI60); test: NCI60 one-dose screen (10 μM), whole panel; format: cell-based

With `CCC12C=CCN3CCC4(c5ccc(OC)cc5N(C)C4C(O)(C(=O)OC)C1O)C32` (stereo not shown) [Compound 13, 17-desacetylvindoline] the activity at 10 µM (CCRF-CEM) was 103%, the activity at 10 µM (HL-60(TB)) was 119% and the activity at 10 µM (K-562) was 101%. The activity at 10 µM (MOLT-4) was 100%, the activity at 10 µM (RPMI-8226) was 99.4% and the activity at 10 µM (A549/ATCC) was 103%. It also gave an activity at 10 µM (HOP-62) of 102%, an activity at 10 µM (NCI-H322M) of 92.8% and an activity at 10 µM (NCI-H460) of 106%. For the same compound, the activity at 10 µM (NCI-H522) was 94%, the activity at 10 µM (COLO 205) was 118% and the activity at 10 µM (HCT-116) was 99.2%. It also gave an activity at 10 µM (HCT-15) of 99.2%, an activity at 10 µM (HT29) of 102% and an activity at 10 µM (KM12) of 103%. The activity at 10 µM (SW-620) was 99.4%, the activity at 10 µM (SF-268) was 107% and the activity at 10 µM (SF-295) was 101%. For the same compound, the activity at 10 µM (SF-539) was 96.6%, the activity at 10 µM (SNB-19) was 97.4% and the activity at 10 µM (SNB-75) was 84.9%. The activity at 10 µM (U251) was 99.3%, the activity at 10 µM (LOX IMVI) was 97.5% and the activity at 10 µM (MALME-3M) was 90.8%. The activity at 10 µM (M14) was 94.7%, the activity at 10 µM (SK-MEL-2) was 116% and the activity at 10 µM (SK-MEL-28) was 92.1%. It also gave an activity at 10 µM (SK-MEL-5) of 90.5%, an activity at 10 µM (UACC-257) of 96.7% and an activity at 10 µM (IGROV1) of 95.8%. It also gave an activity at 10 µM (OVCAR-3) of 112%, an activity at 10 µM (OVCAR-8) of 103% and an activity at 10 µM (786–0) of 97.7%. The activity at 10 µM (A498) was 104%, the activity at 10 µM (ACHN) was 96% and the activity at 10 µM (RXF 393) was 104%. It also gave an activity at 10 µM (SN12C) of 99%, an activity at 10 µM (TK-10) of 93.3% and an activity at 10 µM (DU-145) of 110%. For the same compound, the activity at 10 µM (MCF7) was 95.7%, the activity at 10 µM (HS 578T) was 100% and the “antiproliferative effect (in words)” value ([1]; 10 μM one-dose, NCI60) was “a notable antiproliferative effect was not shown”. It also gave an activity at 10 µM ([1]; Homo sapiens, read-out: Growth percent rate, Mean) of 98.8%.
